The subject of series [1] is PKM2 in orthotopic GBM39 PDX tumors. Put plainly: PET imaging of orthotopic GBM39 PDX tumors at baseline and after TEPP-46 blocking. In kind it is in vivo, mouse. Here is the method: (§1) In vivo Tumor Models: For subcutaneous tumor models, U87 tumor cells (5×10^6 cells; 100 μL PBS) were injected subcutaneously on the back of female BALB/c nude mice (aged 6-8 weeks; Charles River Laboratories) and grown to approximately 150 mm^3. Tumor dimensions were measured periodically using a caliper (by the same experienced researcher), with tumor volumes calculated by the equation: volume=(π/6)×a×b×c, where a, b, and c represent three orthogonal axes of the tumor. For orthotopic brain tumor models, 2×10^5 U87 cells were implanted 0.5 mm anterior and 2 mm to the right of the bregma in the brains of 6-8 week-old nude mice, held in place using a stereotactic unit. The cells, suspended in 4 μL PBS, were injected at a depth of 3 mm over 5 min with an AS blunt-ended Hamilton syringe, which was subsequently held in place for a further 5 min. Animals were anaesthetized with an i.p. injection of 150 mg/kg ketamine, 15 mg/kg xylazine. Mice were subsequently imaged by MRI and PET 32-35 days post intracranial injection and GBM39 tumor-bearing mice were imaged between 44-50 days after implantation.
(§2) PET imaging scans were carried out on a docked Siemens Inveon PET/CT scanner (matrix size, 128×128×159; CT attenuation-corrected; non-scatter corrected), following a bolus i.v. injection of approximately 18.5 MBq of [^11C]DASA-23 into tumor-bearing mice. Dynamic scans were acquired in list mode format over 60 min. The acquired data were then sorted into 0.5-mm sinogram bins and 19 time frames for image reconstruction (4×15 s, 4×60 s and 11×300 s), which was done by iterative reconstruction using the following parameters: 3D ordered-subsets expectation maximization (3D-OSEM) followed by fast maximum a posteriori (fastMAP); MAP OSEM interations, 2; MAP subsets, 16; MAP iterations, 18.
(§3) The count densities were averaged for all volumes of interest at each time point to obtain a time versus radioactivity curve (TAC). Tumor and tissue TACs were normalized to injected dose, measured by a CRC-15 PET dose calibrator (Capintec, Inc.), and expressed as percentage injected dose per milliliter of tissue (% ID/mL). The area under the TAC, calculated as the integral of % ID/mL from 0 to 60 min, and the normalized uptake of radiotracer at 60 min (% ID/mL60) were also used for comparisons. Siemens Inveon Research Workplace software (v.4.0) was used for visualization of radiotracer uptake in the tumor, to define the three-dimensional (3D) volumes of interest (VOI) and for 3D-visualization to create volume rendering technique (VRT) images.

A further series concerns HeLa cells. Nature of the series: Cell uptake and efflux of radiotracer in HeLa cells. The series is classed as cell-based, human. Here is the method:
(§4) Cell Uptake and Efflux Studies: U87 and HeLa cells (2×10^5) were plated into 6-well plates overnight before [^11C]DASA-23 uptake analysis. On the day of the experiment, fresh, pre-warmed DMEM containing 0.925 MBq of [^11C]DASA-23 was added to individual wells (1 mL/well, 9.25±4.63 pmol).
(§5) Cells were incubated with [^11C]DASA-23 at 37° C. and 5% CO2 over a 60 min time course. At the respective time points, plates were placed on ice, washed 3 times with ice-cold phosphate-buffered saline (PBS), and lysed in radioimmunoprecipitation assay buffer (Thermo Fisher Scientific Inc.; 500 μL). 300 μL cell lysates were transferred to counting tubes and decay-corrected radioactivity was determined on a y counter (Cobra II Auto-Gamma counter; Packard Biosciences Co.). The remaining lysate was frozen and used following radioactive decay for protein determination using a bicinchoninic acid (BCA) 96-well plate assay (Thermo Fisher Scientific Inc.) and for immunoblotting. In addition, 10 μL standards from the 0.925 MBq/mL solution added to cells were counted to quantitate percentage radiotracer uptake. For efflux studies, cells were incubated with radiotracer for 60 min, washed 3 times with room temperature (RT) Hank's Buffered Salt Solution (HBSS) before subsequent incubation at 37° C. in fresh, radiotracer-free, DMEM. At allotted times, samples were processed.

The next series deals with U87 human glioma cells. Put plainly: Cell uptake and efflux of radiotracer in U87 cells. In kind it is cell-based. Here is the method:
as §4, §5

For series [2], the system named is subcutaneous U87 human glioma xenografts. Put plainly: PET/CT and ex vivo biodistribution in mice bearing subcutaneous U87 xenografts. Also on record: species or system mouse. As to the method:
as §1, §2, §3
Ex vivo Biodistribution: After the PET imaging studies, 60 min post radiotracer administration, mice were sacrificed by exsanguination via cardiac puncture and tissues harvested. Tissue radioactivity for all organs was subsequently determined on a gamma counter (decay-corrected; Cobra II Auto-Gamma counter, Packard Biosciences Co, Pangbourne, UK). Ten-microliter standards from the stock activity were also counted for data normalization. Data were expressed as percent injected dose per gram of tissue (% ID/g).

A short description of series [3]: Ex vivo mouse plasma stability. In kind it is in vitro ADME. Conditions: after 60 min, 37° C. As to the method:
Plasma Stability: [^11C]DASA-23 stability in mouse plasma was assessed ex vivo according to previously described methodology (James et al., (2012) J. Med. Chem. 55: 8272-8282, incorporated herein by reference in its entirety.
Samples were incubated for 10 min, 30 min, and 60 min and compared to a standard from the respective injected probe.

The test system of series [4] is orthotopic U87 human gliomas. Put plainly: PET imaging of orthotopic U87 tumors in mice. The series is classed as in vivo, mouse. Conditions: 30 min after injection. As to the method: as §1, with “Animals were anaesthetized with an i.p. injection of 150 mg/kg ketamine, 15 mg/kg xylazine. Mice were subsequently imaged by MRI and PET 32-35 days post intracranial injection and GBM39 tumor-bearing mice were imaged between 44-50 days after implantation.” left out
The count densities were averaged for all volumes of interest at each time point to obtain a time versus radioactivity curve (TAC). Tumor and tissue TACs were normalized to injected dose, measured by a CRC-15 PET dose calibrator (Capintec, Inc.), and expressed as percentage injected dose per milliliter of tissue (% ID/mL). The area under the TAC, calculated as the integral of % ID/mL from 0 to 60 min, and the normalized uptake of radiotracer at 60 min (% ID/mL60) were also used for comparisons. […]

The target in series [5] is T1, PKM2 (Homo sapiens, UniProt P14618). Particulars: versus PKM1, PKR and PKL; cited from earlier work.
Target sequence in this assay (P14618 whole entry, species assumed): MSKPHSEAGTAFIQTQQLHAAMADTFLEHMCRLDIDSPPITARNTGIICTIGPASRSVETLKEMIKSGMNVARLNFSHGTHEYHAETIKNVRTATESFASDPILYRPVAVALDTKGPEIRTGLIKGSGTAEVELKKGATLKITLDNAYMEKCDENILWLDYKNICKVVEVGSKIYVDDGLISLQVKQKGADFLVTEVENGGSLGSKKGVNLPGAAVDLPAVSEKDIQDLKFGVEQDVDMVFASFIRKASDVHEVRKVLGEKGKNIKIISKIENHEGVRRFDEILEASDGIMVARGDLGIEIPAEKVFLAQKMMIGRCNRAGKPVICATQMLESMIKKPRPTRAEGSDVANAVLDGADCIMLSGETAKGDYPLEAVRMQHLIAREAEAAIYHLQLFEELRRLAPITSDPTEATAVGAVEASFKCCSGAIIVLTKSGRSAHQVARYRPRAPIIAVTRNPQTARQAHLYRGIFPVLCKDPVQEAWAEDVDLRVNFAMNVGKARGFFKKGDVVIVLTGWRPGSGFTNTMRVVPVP
The target of series [6] is T1, PKM2. Nature of the series: Radiotracer uptake after PKM2 siRNA knockdown in HeLa cells. In kind it is cell-based. Also on record: endogenous in cells; host or cells: HeLa. As to the method: PKM2 siRNA: Time course PKM2 knockdown in HeLa cells was assessed over 72 h post-transfection. Cells were seeded in 6-well plates in antibiotic-free DMEM at 1.5×10^6 cells/well 24 h prior to siRNA transfection with DharmaFECT1 (Thermo Scientific), according to the manufacturer's instruction. Specific siRNA targeting only PKM2 were custom made by Thermo Scientific using the following sequences: […] (sense) (SEQ ID NO: 1), […] (antisense) (SEQ ID NO: 2). Scrambled siRNA (siCtrl; Cell Signaling Technology) was used as a control. siRNA were added at a final concentration of 25 nM. [^11C]DASA-23 uptake (0.925 MBq/mL) was measured after 30 min in cells transfected with siCtrl and siPKM2 at 24 h, 48 h and 72 h post transfection, and processed as described in Example 4, above. Untreated cells were used as a further control, measured 24 h post addition of fresh DMEM and 96 h post seeding.
Western Blotting: Monoclonal rabbit antibody to PKM1 and PKM2 (1:1000 dilution, Cell Signaling Technology) were used in a standard western blotting protocol. A rabbit anti-actin antibody (Sigma-Aldrich Co. Ltd; 1:2000) was used as a loading control. Blots were scanned and signal quantification was performed using ImageJ (National Institutes of Health).
Target sequence in this assay (P14618 2-531 limits assumed): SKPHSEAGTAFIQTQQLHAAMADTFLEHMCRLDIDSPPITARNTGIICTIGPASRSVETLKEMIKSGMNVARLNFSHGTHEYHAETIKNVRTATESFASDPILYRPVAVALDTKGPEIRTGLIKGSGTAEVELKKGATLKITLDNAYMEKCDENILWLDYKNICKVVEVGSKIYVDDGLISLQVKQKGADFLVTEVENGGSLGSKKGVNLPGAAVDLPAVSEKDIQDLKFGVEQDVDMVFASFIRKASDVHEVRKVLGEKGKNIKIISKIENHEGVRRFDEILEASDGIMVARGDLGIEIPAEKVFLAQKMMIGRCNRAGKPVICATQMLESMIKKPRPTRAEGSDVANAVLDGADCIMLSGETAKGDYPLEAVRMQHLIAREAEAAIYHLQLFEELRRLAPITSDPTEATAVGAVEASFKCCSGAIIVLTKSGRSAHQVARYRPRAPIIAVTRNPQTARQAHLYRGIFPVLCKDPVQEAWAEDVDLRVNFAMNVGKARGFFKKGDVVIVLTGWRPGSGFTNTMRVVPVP

Where [7] appears, read: 30 min post removal of exogenous radiotracer.

Results on 2 compounds are retold here after US10039844B2, “Imaging tumor glycolysis by non-invasive measurement of pyruvate kinase M2” (The Board of Trustees of the Leland Stanford Junior …, priority 2014, dated 2018).

Take `Cn1c2cc([S+](C)[O-])sc2c2cnn(Cc3cccc(N)c3)c(=O)c21` (centres unmarked) [TEPP-46, 6-((3-Aminophenyl)methyl)-4-methyl-2-methylsulfinylthieno[3,4]pyrrolo[1,3-d]pyridazin-5-one, reference compound]: in series [1] (TEPP-46 50 mg/kg i.p., 1 hour before radiotracer), the “decrease of tumor-associated [^11C]DASA-23 retention” value turned out to be 42%. Also, in series [1] (one hour after TEPP-46 injection), the “effect on [^11C]DASA-23 tumor signal” value is on record as “complete ablation of tumor signal to background levels”.
Consider `[11CH3]Oc1ccc(S(=O)(=O)N2CCN(S(=O)(=O)c3c(F)cccc3F)CC2)cc1` [[^11C]DASA-23, 1-((2,6-difluorophenyl)sulfon-yl)-4-((4-(methoxy-^11C)phenyl)sulfonyl)piperazine], for which, in the series with HeLa cells (setting [7]), the “initial intracellular radioactivity retained” value is reported as “about 40%”. Moreover, the cellular uptake with HeLa cells (by 30 min) worked out at 14.9±2.0 %radioactivity/mg protein. In addition, the “initial intracellular radioactivity retained” value in the series on U87 human glioma cells (setting [7]) is “about 40%”. Also, the cellular uptake in the series on U87 human glioma cells (by 30 min) was 19.6±2.0 % radioactivity/mg protein. In series [2] (60 min post injection), the “uptake ratio of U87 tumor to blood” value is 1.1, the “uptake ratio of U87 tumor to brain” value stood at 2.1 and the “uptake ratio of U87 tumor to muscle” value was determined as 1.6. In addition, the “time of peak brain uptake” value in series [2] (dynamic PET, normal brain, after injection) is recorded as 30 s. The “time to reach background levels in brain” value in series [2] (dynamic PET, post injection) is not above 10 min. Further, in series [2] (dynamic PET, subcutaneous U87 tumor), the “time of peak tumor uptake” value was determined as 10 min. In addition, in series [2] (ex vivo biodistribution), the “accumulation in the brain” value is on record as “did not accumulate in the brain”. In series [2] (ex vivo biodistribution, 60 min post injection), the U87 tumor uptake is reported as 1.78±0.23 % of the injected dose (ID)/g. Further, the “parent remaining in plasma” value in series [3] is more than 96%. For the same compound, in series [4], the “radioactivity in the contralateral background tissue” value is given as 0.78±0.18 % ID/g. The “radioactivity in the tumor” value in series [4] (orthotopic U87 tumor) came out at 1.68±0.47 % ID/g. Also, the “tumor-associated retention at baseline” value in series [1] (GBM39 tumor, 30 min after radiotracer injection) amounted to 1.61±0.25 % ID/g. Besides, the “tumor-associated retention after TEPP-46” value in series [1] (GBM39 tumor, 30 min after radiotracer injection, 1 hour after TEPP-46 50 mg/kg i.p.) was determined as 0.93±0.10 % ID/g. The “uptake in control, contralateral healthy brain” value in series [1] (GBM39 tumor-bearing mice) is listed as 0.79±0.18 % ID/g. The “selectivity of activation versus other pyruvate kinase isozymes” value at PKM2 [5] is listed as “selective activation of PKM2”. Moreover, on PKM2 [6] (24 h post transfection), the “reduction in uptake in siPKM2 cells versus control siRNA” value worked out at 16.5%. Also, the “uptake in siPKM2 cells as % of siCtrl cells” value at PKM2 [6] (72 h post transfection) was found to be 44.5%.
